How the values were obtained:
Assay type in all cases: cell-based
human normal fibroblasts [1] = assay: Promotion of collagen biosynthesis (procollagen type-I C-peptide, PICP, in supernatant); conditions: 10 ppm, 48 hours, control group 125
Procedure: In order to examine the effect on the promotion of collagen biosynthesis that reduces wrinkles and enhances skin elasticity, human normal fibroblasts were seeded into a 96-well microplate at a density of 1×10^4 cells/well, and incubated in DMEM (Dulbecco's Modified Eagle's Medium) medium for 24 hours. After incubation, the medium was replaced with serum-free DMEM media containing 10 ppm of each of dehydroabietic acid (Comparative Example 1), compound K (Comparative Example 2), and a mixture of dehydroabietic acid and compound K (weight ratio of 1:7; Example 1) and then the cells were further incubated for 48 hours. At 24 hours before completion of the incubation, 10 μM ascorbic acid as the positive control was added to each well to promote collagen synthesis. After completion, each well was washed, and the medium was replaced with serum-free DMEM medium, after which the cells were further incubated for 24 hours. After incubation, the supernatant of each well was collected, and the amount of procollagen type-I C-peptide (PICP) in the supernatant was measured using a kit (Takara, Kyoto, Japan) to determine the amount of newly synthesized collagen.

human normal fibroblasts [2] = assay: Inhibition of lipofuscin accumulation in skin cells (lipofuscin fluorescence); conditions: for Absorbance (570 nm): 10 ppm, after 10 passages of subculture, excitation 360 nm, emission 570 nm, control group 0.650; for inhibition at 10 ppm: Homo sapiens, Fibroblast, after 10 passages, relative to control group (equation 2), read-out: Lipofusin accumulation inhibition rate (%)
Procedure: In order to examine the effect on the inhibition of lipofuscin accumulation that prevents aging, human normal fibroblasts were seeded into a 96-well microplate at a density of 1×10^4 cells/well, and incubated in DMEM (Dulbecco's Modified Eagle's Medium) medium for 24 hours. After incubation, the medium was replaced with serum-free DMEM media containing 10 ppm of each of dehydroabietic acid (Comparative Example 1), compound K (Comparative Example 2), and a mixture of dehydroabietic acid and compound K (weight ratio of 1:7; Example 1). Then, the cells were subcultured in a fresh medium every 48 hours. After 10 passages of subculture, the fluorescence of the self-luminescent protein lipofuscin in the cells was measured using a microplate reader with the excitation wavelength of 360 nm and the emission wavelength of 570 nm. Based on the experiment results, the effect on inhibition of lipofuscin accumulation was calculated using the following equation 2. [formula]

human normal fibroblasts [3] = assay: Skin cell proliferation (MTT assay); conditions: 10 ppm, 24 hours; for Cell proliferation effect (%): relative to control group (equation 1); for Absorbance (570 nm): MTT, serum-free DMEM, control group 0.355
Procedure: In order to examine the effect on skin cell proliferation that reduces wrinkles and enhances skin elasticity, human normal fibroblasts were seeded into a 96-well microplate at a density of 1×10^4 cells/well, and incubated in DMEM (Dulbecco's Modified Eagle's Medium) medium for 24 hours. After incubation, the medium was replaced with serum-free DMEM media containing 10 ppm of each of dehydroabietic acid (Comparative Example 1), compound K (Comparative Example 2), and a mixture of dehydroabietic acid and compound K (weight ratio of 1:7; Example 1), and then the cells were further incubated for 24 hours. Then, 10 μl of 3-(4,5-dimethylthiazol-2-yl)-2,5-diphenyl tetrazolium (MTT, 5 mg/ml) was added to each well, which was then allowed to stand for 4 hours, followed by removal of the medium. Then, 100 μl of dimethyl sulfoxide solution was added to each well, and the absorbance at 570 nm was measured with a microplate reader. Based on the experiment results, the cell proliferation effect was calculated using the following equation 1. [formula]

Row | Compound | Amount of collagen synthesized (human normal fibroblasts [1]) | Absorbance (570 nm) (human normal fibroblasts [2]) | inhibition at 10 ppm (human normal fibroblasts [2]) | Cell proliferation effect (%) (human normal fibroblasts [3]) | Absorbance (570 nm) (human normal fibroblasts [3])
1 | O=C1O[C@H]([C@@H](O)CO)C(O)=C1O [Ascorbic acid, ascorbic acid] | 186 ng/2 × 10^4 |  |  |  | 
2 | CC(C)c1ccc2c(c1)CC[C@H]1[C@](C)(C(=O)O)CCC[C@]21C [Comparative Example 1, dehydroabietic acid] | 174 ng/2 × 10^4 | 0.465 | 28.5% | 53.8% | 0.546
3 | CC(C)=CCC[C@](C)(O[C@@H]1O[C@H](CO)[C@@H](O)[C@H](O)[C@H]1O)[C@H]1CC[C@]2(C)[C@@H]1[C@H](O)C[C@@H]1[C@@]3(C)CC[C@H](O)C(C)(C)[C@@H]3CC[C@]12C [Comparative Example 2, compound K] | 162 ng/2 × 10^4 | 0.448 | 31.1% | 46.5% | 0.520
